# Entries after “also recorded” stand apart in the source; their conditions may differ.
# Key:
# PKA [1] = target: T1, PKA (Homo sapiens, UniProt P17612); conditions: cited from earlier work
# 468-target kinome screen = assay: DiscoverX kinome screen, off-target hits; format: binding, human; conditions: 10,000 nM API; for # Hits <10% binding: hit = less than 10% binding (>90% binding inhibition)
# Description: (§1) A 468-target kinome screen and a safety screen were carried out to examine the off-target profiles of different kinase inhibitors (DiscoverX, Freemont, Calif.). The kinome screen is a binding assay where API interference of kinase domain/substrate binding is assessed as percent of control. Less than 10% binding (or >90% binding inhibition) is most biologically relevant and considered as a ‘hit’. BA-2017 only had 7 off-target hits compared to BA-1049 and Netarsudil, which both had 11 hits (Table 1) (Studirvant et al. 2016 Bioorg Med Chem Lett. 26(10):2475-2480). […] Published data for Netarsudil were with 200 times less API. […] The NET activity likely helps to decrease IOP but might increase hyperemia, while the SERT activity might have long-term safety consequences (Costagliola et al. 2004 CNS drugs 18(8): p. 475-484).
# (§2) In the kinome screen BA-2017 had fewer off-target hits (Table 1) than BA-1049. […] An interesting hit from the kinome screen was on Abl (Table 1), an oncogene that also regulates many cellular activities, including vascular leakage.
# [2] = target: T2, norepinephrine transporter (NET) (Homo sapiens, UniProt P23975); assay: Safety screen; format: biochemical; conditions: 10,000 nM API
# T2 construct: purchased DiscoverX
# T2 sequence (P23975 whole entry): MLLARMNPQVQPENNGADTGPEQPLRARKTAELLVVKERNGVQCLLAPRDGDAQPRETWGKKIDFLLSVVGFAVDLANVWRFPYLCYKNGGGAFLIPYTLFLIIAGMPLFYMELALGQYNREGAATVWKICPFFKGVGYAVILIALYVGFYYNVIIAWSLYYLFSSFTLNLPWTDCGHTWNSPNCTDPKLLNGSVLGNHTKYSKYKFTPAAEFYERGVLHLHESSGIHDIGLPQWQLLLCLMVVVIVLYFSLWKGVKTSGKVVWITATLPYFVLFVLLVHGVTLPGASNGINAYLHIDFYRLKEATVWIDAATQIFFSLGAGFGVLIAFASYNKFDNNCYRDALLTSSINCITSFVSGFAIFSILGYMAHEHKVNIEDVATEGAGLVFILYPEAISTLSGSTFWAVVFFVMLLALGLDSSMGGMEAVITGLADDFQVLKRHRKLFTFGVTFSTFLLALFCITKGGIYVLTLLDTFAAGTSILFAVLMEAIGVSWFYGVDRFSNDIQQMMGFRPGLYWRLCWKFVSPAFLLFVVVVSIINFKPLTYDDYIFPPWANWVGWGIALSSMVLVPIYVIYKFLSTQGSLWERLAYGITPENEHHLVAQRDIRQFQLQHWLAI
# Description: as §1
# (§3) These targets include GPCRs, transporters, ion channels, nuclear receptors, non-kinase enzymes.
# [3] = target: T3, serotonin transporter (SERT) (Homo sapiens, UniProt P31645); assay: Safety screen; format: biochemical; conditions: 10,000 nM API
# T3 construct: purchased DiscoverX
# T3 sequence (P31645 whole entry): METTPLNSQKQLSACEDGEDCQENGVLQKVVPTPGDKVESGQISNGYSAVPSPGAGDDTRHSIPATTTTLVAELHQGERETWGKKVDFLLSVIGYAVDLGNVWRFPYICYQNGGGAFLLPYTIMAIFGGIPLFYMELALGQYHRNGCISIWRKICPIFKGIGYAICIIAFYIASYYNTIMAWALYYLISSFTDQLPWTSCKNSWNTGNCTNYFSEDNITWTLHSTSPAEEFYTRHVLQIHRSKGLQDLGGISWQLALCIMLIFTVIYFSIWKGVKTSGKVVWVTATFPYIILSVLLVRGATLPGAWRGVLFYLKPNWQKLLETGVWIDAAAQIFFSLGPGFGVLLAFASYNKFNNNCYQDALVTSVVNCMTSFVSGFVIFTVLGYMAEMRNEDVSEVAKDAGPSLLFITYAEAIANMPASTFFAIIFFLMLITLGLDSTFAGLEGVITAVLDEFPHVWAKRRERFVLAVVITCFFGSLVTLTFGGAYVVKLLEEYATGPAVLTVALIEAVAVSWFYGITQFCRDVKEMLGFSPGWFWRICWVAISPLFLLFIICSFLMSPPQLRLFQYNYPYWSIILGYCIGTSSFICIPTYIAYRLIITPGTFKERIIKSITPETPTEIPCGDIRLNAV
# Description: as §1, §3
# PKA [4] = target: T1, PKA; assay: Single dose inhibition assay of key AGC class kinases; format: biochemical; conditions: 10 μM API
# Description: Molecular modeling and rational drug design were used to create and screen over 50 ROCK inhibitors. These ROCK inhibitors were screened for selectivity for ROCK2 and ability to promote neurite outgrowth. Several lead inhibitors came out of this screen and further screened for inhibition of key AGC class kinases by a single dose inhibition assay performed with 10 μM active pharmaceutical ingredient (API). The lead compound is chiral. […] They have different selectivity for ROCK2 (Table 2) and different off-target profiles (Table 1; FIG. 1).
# GRK1 = target: T4, GRK1 (Homo sapiens, UniProt Q15835); assay: DiscoverX kinome screen; format: binding
# T4 construct: are incubated with DNA-tagged kinase domains tagged; DNA tag; purchased DiscoverX
# T4 sequence (Q15835 190-455 limits assumed): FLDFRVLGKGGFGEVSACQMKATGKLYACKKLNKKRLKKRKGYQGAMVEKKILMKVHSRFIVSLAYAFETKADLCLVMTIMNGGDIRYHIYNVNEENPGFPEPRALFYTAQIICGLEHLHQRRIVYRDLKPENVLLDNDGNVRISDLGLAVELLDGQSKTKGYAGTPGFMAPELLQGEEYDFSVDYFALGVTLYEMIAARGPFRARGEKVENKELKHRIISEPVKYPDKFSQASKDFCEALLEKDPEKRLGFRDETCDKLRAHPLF
# Description: as §1, §2
# PKC Δ = target: T5, PKC Δ (Homo sapiens, UniProt Q05655); assay: DiscoverX kinome screen; format: binding; conditions: 10,000 nM API
# T5 construct: are incubated with DNA-tagged kinase domains tagged; DNA tag; purchased DiscoverX
# T5 sequence (Q05655 349-603 limits assumed, stated change not applied): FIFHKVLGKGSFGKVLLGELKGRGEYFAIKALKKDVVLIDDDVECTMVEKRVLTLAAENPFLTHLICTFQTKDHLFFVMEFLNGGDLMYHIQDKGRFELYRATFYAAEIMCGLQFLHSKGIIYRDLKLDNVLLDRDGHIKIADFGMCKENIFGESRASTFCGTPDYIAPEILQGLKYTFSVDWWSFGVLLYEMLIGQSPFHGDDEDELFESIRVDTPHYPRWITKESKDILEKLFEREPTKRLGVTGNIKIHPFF
# Description: as §1, §2
# PKC ε = target: T6, PKC ε (Homo sapiens, UniProt Q02156); assay: DiscoverX kinome screen; format: binding; conditions: 10,000 nM API
# T6 construct: are incubated with DNA-tagged kinase domains tagged; DNA tag; purchased DiscoverX
# T6 sequence (Q02156 408-668 limits assumed): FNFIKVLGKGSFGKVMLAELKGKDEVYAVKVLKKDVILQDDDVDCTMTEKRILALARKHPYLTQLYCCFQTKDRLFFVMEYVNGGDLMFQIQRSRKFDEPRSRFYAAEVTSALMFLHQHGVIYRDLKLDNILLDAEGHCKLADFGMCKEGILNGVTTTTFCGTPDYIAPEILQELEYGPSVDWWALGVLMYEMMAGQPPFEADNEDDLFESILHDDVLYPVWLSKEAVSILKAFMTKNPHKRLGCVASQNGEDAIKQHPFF
# Description: as §1, §2
# [5] = Oral dosing of cynomolgus monkeys, systemic side effects; format: in vivo; conditions: 18 mg/kg oral gavage, 4 monkeys
# Description: Oral dosing of 4 cynomolgus monkeys dosed with 18 mg/kg oral BA-1049 by oral gavage were completed to understand potential systemic side effects. The only side effects noticed at this dose was squinting by the monkeys.
# [6] = Brain and blood vessel exposure after oral administration; format: in vivo, Sprague Dawley rats
# Description: (§4) Adult Sprague Dawley rats (Charles River Laboratories) were used for this experiment. […] One g of tissue was homogenized in 1 mL of 1×PBS. Homogenates were precipitated by pipetting 200 μL of homogenate into a tube using aseptically cut off 1000 μL pipette tips to prevent clogging. Samples are further diluted with 100 μL PBS to aid in precipitation. 900 μL of cold methanol was added to each sample and samples were vortexed for 5 to 10 seconds. Samples were placed at 4° C. for 30 to 40 min and then centrifuged at 10,000 g for 15 min at 4° C. The supernatant is collected and stored at −80° C. until analyzed.
# Pathological angiogenesis that occurs in the retina is a major feature of leading blinding diseases, and particularly associated with diabetic retinopathy and age-related macular degeneration.
# ROCK2 [7] = target: T7, ROCK2 (Homo sapiens, UniProt O75116); assay: IC50 determined at 10 μM ATP; format: biochemical; parameters: purchased Eurofins Testing (Dundee, Scotland, UK); conditions: for IC50: 10 μM ATP (below Km), * = preliminary
# Text: The data in Table 2 were obtained at ATP concentration below those corresponding to Km.
# Target sequence in this assay (O75116 whole entry): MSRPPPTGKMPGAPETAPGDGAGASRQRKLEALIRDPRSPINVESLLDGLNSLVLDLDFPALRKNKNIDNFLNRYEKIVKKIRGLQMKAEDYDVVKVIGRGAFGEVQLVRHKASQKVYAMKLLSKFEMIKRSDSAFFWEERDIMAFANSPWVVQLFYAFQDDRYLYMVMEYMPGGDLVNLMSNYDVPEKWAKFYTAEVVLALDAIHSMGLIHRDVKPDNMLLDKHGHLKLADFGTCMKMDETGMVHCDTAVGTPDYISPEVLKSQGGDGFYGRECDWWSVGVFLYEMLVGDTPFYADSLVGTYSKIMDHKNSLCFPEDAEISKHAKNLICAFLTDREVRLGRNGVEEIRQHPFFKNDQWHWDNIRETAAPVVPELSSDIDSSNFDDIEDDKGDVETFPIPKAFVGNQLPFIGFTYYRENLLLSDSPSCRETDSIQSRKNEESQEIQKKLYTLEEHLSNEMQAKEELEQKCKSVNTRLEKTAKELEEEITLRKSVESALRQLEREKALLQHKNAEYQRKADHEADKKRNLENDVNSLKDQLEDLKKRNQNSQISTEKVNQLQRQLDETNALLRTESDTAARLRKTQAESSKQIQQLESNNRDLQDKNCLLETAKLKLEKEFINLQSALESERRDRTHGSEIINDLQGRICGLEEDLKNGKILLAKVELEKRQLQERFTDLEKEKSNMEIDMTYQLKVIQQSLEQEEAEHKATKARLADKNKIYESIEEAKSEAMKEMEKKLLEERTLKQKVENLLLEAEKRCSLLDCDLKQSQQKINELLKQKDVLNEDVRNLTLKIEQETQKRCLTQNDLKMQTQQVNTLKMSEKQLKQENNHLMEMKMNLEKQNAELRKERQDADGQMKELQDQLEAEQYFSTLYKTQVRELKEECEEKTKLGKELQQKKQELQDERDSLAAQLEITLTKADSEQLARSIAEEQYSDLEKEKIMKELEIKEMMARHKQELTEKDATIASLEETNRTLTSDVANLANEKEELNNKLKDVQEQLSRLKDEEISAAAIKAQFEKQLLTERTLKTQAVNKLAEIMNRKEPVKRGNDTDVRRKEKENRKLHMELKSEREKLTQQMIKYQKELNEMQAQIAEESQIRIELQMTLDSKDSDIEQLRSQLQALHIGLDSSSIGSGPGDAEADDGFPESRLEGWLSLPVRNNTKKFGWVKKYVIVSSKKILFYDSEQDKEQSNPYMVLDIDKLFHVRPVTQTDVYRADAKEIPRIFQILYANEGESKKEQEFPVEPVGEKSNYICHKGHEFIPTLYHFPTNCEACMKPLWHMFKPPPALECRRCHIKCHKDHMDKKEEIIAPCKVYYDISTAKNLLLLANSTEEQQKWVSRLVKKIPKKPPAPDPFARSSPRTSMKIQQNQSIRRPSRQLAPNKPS
# ROCK1 [8] = target: T8, ROCK1 (Homo sapiens, UniProt Q13464); assay: IC50 determined at 10 μM ATP; format: biochemical; parameters: purchased Eurofins Testing (Dundee, Scotland, UK); conditions: 10 μM ATP (below Km)
# ROCK2 [9] = target: T7, ROCK2; assay: Direct filter-binding radiometric kinase assay (Eurofins) at Km ATP; format: biochemical; parameters: purchased Eurofins Testing (Dundee, Scotland, UK); conditions: for ROCK1/ROCK2 (fold difference): IC50 at respective Km ATP
# Description: ROCK1 and ROCK2 IC50 determinations were made using ATP concentrations at the Km ATP of 70 μM and 15 μM for ROCK1 and ROCK2, respectively.
# For the data shown in Table 4, IC50 inhibition curves were performed at the respective Km for ATP for both ROCK1 and ROCK2. Performing these assays at the Km of ATP gives a better representation of the inhibitory activity. Other comparisons where differing kinases are tested at a single ATP concentration can potentially misrepresent the comparative efficacy since enzyme inhibitory activity tested below the Km for ATP of the enzyme, produces a circumstance where the enzyme is actually not constantly bound with ATP and the reaction velocity becomes sub-optimal.
# Target sequence in this assay (O75116 whole entry): as above
# ROCK1 [10] = target: T8, ROCK1; assay: DiscoverX kinome screen; format: binding; parameters: are incubated with DNA-tagged kinase domains tagged; DNA tag; purchased DiscoverX; conditions: 10,000 nM API
# Description: as §1, §2
# Target sequence in this assay (Q13464 76-338 limits assumed): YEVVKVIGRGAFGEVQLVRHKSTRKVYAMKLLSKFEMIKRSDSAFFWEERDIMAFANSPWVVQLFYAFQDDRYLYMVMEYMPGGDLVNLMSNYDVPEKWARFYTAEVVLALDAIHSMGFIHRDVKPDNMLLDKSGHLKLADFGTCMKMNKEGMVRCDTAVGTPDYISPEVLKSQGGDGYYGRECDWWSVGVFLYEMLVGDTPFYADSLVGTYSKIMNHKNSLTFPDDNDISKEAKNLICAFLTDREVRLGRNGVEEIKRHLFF
# ROCK2 [11] = target: T7, ROCK2; assay: DiscoverX kinome screen; format: binding; parameters: are incubated with DNA-tagged kinase domains tagged; DNA tag; purchased DiscoverX; conditions: 10,000 nM API
# Description: as §1, §2
# Target sequence in this assay (O75116 92-354 limits assumed): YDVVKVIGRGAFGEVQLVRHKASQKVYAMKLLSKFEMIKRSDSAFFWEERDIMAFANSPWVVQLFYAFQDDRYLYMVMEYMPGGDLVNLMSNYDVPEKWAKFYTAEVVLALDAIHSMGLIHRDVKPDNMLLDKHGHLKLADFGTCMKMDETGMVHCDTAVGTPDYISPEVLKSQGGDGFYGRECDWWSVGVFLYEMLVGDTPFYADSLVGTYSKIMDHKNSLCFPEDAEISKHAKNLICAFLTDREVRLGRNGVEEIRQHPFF
# [12] = clinical studies; cited from earlier work
# PKA, PKC and CaMKII = conditions: cited from earlier work
# [13] = cited from earlier work
# [14] = Penetration and distribution in ocular tissues after topical instillation (LC-MS); format: in vivo, Sprague Dawley rats; conditions: topical 3% solution of metabolite, 20 minutes
# Description: as §4
# For the optic nerve sample, the concentration is shown per length of optic nerve (right y-axis). […] Therefore, drug is available in the retina and optic nerve for treating these tissues affected in glaucoma and other retinal diseases.
# In FIG. 14 we examined the ability of metabolite to penetrate the ocular tissues of the eye after topical instillation of a 3% solution of metabolite. In comparison with FIG. 13, that also the metabolite has adequate penetration into ocular and CNS tissue. Of particular note is the penetration in the retina and presence in the optic nerve. All compounds were given topically as eye drops to the eye of adult Sprague Dawley rats. Twenty minutes later the indicated tissues were removed and the parent compound and active metabolite were analyzed by LC/MS.
# [15] = followed 24 months; cited from earlier work
SMILES,Kinome Screen Other (other off-target kinase) (468-target kinome screen),# Hits <10% binding (468-target kinome screen),Safety Screen % inhibition NET [2],Safety Screen % inhibition SERT [3],Kinome Screen % inhibition PKC Δ (PKC Δ),Kinome Screen % inhibition PKC ε (PKC ε),Exposure in blood vessels [6],IC50 (ROCK2 [7]),ROCK1/ROCK2 (fold difference) (ROCK2 [9]),Kinome Screen % inhibition ROCK1 (ROCK1 [10]),Kinome Screen % inhibition ROCK2 (ROCK2 [11]),Hyperemia in humans [12],other results
"C[C@@H](N)[C@H]1CC[C@H](C(=O)Nc2ccncc2)CC1 [Compound Y-27632, Y-27632]",,,,,,,,,,,,,Binding to PKA (PKA [1]): all bind PKA
C[C@@H](N)C1CCN(S(=O)(=O)c2cccc3cnccc23)CC1 [BA-1049],none,11,none,none,<70%,95%,accumulate at high concentrations in blood vessels,240 nM,43.4,>99%,>99%,,"Inhibition of PKA (PKA [4]): Neither compound inhibited PKA; Off-target activity on GRK1 (GRK1): has some activity toward G-protein couple protein kinase1; also recorded: showed binding to G-protein couple protein kinase1 (GRK1); Side effects [5]: squinting; Brain penetrance [6]: is able to cross the blood brain barrier; Fold-difference (ROCK2 [7]; ROCK1 vs ROCK2 IC50 at 10 μM ATP): 16; IC50 (ROCK1 [8]): 3900 nM; IC50 (ROCK2 [9]; ATP at Km, 15 μM, * = higher purity BA-1076): 599 nM"
C[C@H]1CNCCCN1S(=O)(=O)c1cccc2cncc(F)c12 [Ripasudil],,,,,,,,,,,,more frequent and of longer duration than Netarsudil; also recorded: cause hyperemia (red eyes) as a major side effect,"Inhibition of PKA, PKC and CaMKII (PKA, PKC and CaMKII): both inhibit PKA, PKC and CaMKII"
Cc1ccc(C(=O)OCc2ccc([C@@H](CN)C(=O)Nc3ccc4cnccc4c3)cc2)c(C)c1 [Netarsudil],,,,,,,,,,,,cause hyperemia (red eyes) as a major side effect,Duration of hyperemia on day 1 ([13]; 0.04% Netarsudil): at least 8 hours; Duration of mild hyperemia ([13]; Dutch belted rabbits): 4 to 8 h
C[C@@H](N)C1CCN(S(=O)(=O)c2cccc3c(=O)[nH]ccc23)CC1 [BA-2017],GRK1,7,none,none,<85%,94.7%,accumulate at high concentrations in blood vessels,50 nM,16.5,>99%,>99%,,Penetration into ocular tissues [14]: can penetrate ocular tissue
"C[C@@H](N)[C@H]1CC[C@H](C(=O)Nc2ccncc2)CC1 [Compound Y27432, Y27432]",,,,,,,,,,,,,Corneal clarity and vision [15]: corneal clarity improved and vision improved

# Reference: patent publication US10537567B2, “Kinase inhibitors for treatment of disease” (BioAxone BioSciences, Inc., priority 2017, dated 2020)
